The values that follow come from US9012617B2, “Detection reagents for tyrosine kinase activity and methods of use thereof” (The Trustees of The University of Pennsylvania, priority 2011, dated 2015).

One assay concerns the target T1, EphB2 (Homo sapiens, UniProt P29323).
T1 construct: expressed in transfected cells; host or cells: HEK 293T
T1 sequence (P29323 19-1055): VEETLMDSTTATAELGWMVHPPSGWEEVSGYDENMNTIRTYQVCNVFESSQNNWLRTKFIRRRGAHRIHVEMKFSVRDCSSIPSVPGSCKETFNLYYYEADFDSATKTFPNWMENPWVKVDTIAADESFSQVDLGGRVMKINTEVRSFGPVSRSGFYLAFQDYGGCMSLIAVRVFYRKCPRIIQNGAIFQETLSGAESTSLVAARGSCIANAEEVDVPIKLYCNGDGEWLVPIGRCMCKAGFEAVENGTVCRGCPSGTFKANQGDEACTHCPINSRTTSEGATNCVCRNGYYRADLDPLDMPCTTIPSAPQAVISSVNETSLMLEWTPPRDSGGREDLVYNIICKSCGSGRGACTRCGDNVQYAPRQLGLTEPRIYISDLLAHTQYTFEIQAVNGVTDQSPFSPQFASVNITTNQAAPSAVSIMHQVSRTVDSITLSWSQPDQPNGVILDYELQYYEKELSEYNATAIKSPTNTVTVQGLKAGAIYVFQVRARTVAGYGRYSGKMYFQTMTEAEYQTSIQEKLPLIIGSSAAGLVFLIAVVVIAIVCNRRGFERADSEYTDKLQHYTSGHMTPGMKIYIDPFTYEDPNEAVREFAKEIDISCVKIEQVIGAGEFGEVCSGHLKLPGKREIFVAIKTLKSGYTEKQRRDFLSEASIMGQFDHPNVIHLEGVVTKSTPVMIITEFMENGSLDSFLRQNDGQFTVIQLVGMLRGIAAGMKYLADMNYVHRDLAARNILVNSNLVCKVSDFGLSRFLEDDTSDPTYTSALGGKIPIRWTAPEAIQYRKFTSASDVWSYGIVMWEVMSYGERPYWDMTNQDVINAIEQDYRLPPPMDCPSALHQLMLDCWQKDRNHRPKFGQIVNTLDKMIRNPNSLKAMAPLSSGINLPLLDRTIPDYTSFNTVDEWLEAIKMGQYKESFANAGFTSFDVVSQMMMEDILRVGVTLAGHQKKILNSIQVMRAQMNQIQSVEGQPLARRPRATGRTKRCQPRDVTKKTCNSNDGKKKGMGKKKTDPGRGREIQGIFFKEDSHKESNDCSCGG
The assay is described as follows: EphB2 kinetics imaging in HEK 293T cells transfected with GPhosEphB and EphB2. The assay is classed as cell-based. Conditions: Disassociation rate of EphB2 receptor after Genistien treatment (10 μm). As for the experimental part:
(§1) Cells were imaged in ACSF on a spinning disk confocal (PerkinElmer) encased in a humidified temperature controlled incubator attached to a CCD-EM camera (Hamamatsu). Images were taken as a […] z-projection ([…] step size) every 20 seconds. After a 2 minute baseline, cells were treated and imaged with either DyLight 649 (Jackson Immunoresearch) labeled EphrinB2-FC or DyLight 649 labeled EphrinA1-FC (both at 500 ng/ml) for 15 minutes. Before continuing the experiment, bath was exchanged with fresh ASCF. Genistien (10 μm; Calbiochem) was added to previously imaged cells after a 2 minute baseline and imaged for an additional 15 minutes. Images were collected via Volocity software and analyzed using NIH ImageJ as detailed below.
(§2) Image analysis was conducted off-line using NIH ImageJ using both custom and standard macros. […] Ratio change was calculated as DF/F=(F−F0)/F0 (Yuste and Konnerth, 2005). Significance between conditions was determined by two-way ANOVA with Bonferroni post-hoc tests. Receptor “on” kinetics were calculated as one-phase association, and “off” kinetics were calculated as one-phase decay. All statistical measures were conducted using GraphPad Prism version 5.00 (GraphPad Software, San Diego, Calif.) on a per coverslip basis with several cells analyzed per coverslip from a minimum of three independent experiments. […]

The target in another assay is T2, EphA4 (Homo sapiens, UniProt P54764).
T2 construct: expressed in transfected cells; host or cells: HEK 293T
T2 sequence (P54764 20-986, species assumed): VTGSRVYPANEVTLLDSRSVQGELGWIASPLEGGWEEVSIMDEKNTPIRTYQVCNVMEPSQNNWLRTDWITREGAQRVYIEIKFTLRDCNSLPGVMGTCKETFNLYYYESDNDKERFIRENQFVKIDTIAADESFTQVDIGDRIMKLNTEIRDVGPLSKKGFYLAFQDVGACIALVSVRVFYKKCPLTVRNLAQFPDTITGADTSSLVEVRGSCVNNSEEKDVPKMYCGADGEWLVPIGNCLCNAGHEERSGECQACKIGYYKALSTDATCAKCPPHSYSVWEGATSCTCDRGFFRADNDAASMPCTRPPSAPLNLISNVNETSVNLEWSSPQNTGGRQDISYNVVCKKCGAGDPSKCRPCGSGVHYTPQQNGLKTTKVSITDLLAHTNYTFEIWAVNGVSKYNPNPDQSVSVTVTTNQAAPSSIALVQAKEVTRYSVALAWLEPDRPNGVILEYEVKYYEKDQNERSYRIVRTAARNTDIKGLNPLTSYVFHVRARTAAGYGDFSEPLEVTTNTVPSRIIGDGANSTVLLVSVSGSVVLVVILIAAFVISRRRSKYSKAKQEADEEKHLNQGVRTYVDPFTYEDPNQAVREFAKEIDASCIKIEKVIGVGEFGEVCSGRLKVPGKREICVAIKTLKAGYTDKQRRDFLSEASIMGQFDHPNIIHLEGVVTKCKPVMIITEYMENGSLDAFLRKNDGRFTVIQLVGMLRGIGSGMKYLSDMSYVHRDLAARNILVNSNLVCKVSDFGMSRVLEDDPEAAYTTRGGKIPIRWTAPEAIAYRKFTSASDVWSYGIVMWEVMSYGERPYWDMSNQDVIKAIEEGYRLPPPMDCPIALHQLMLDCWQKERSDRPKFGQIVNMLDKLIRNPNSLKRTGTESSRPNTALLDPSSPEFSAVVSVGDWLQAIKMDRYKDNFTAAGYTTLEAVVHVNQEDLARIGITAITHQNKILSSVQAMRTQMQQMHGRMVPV
As to the kind of experiment: EphA4 kinetics imaging in HEK 293T cells transfected with GPhosEphA and EphA4. The assay is classed as cell-based. Conditions: Disassociation rate of EphA4 receptor after Genistien treatment (10 μm). The method, then:
as §1, §2

Structures are written as SMILES.

`O=c1c(-c2ccc(O)cc2)coc2cc(O)cc(O)c12` [Genistein]: the “One phase decay Tau” value on EphB2 was 1.588; on EphA4, 0.8484.
